Results published in ChEMBL document CHEMBL3351422, “Discovery of N-substituted 7-azaindoline derivatives as potent, orally available M1 and M4 muscarinic acetylcholine receptors selective agonists” (Bioorg Med Chem Lett, 2014).

What was measured:
[1] = Half life in monkey at 0.25 mg/kg, iv and 2.5 mg/kg, po; assay type: ADME, organism-based, Macaca mulatta; conditions: rhesus monkey, in vivo
[2] = Clearance in monkey at 0.25 mg/kg, iv and 2.5 mg/kg, po; assay type: ADME, organism-based, Macaca mulatta; conditions: rhesus monkey, in vivo
[3] = Oral bioavailability in rat at 2.5 mg/kg; assay type: ADME, organism-based; conditions: in vivo
[4] = target: Delta-type opioid receptor (Homo sapiens) (UniProt P41143); assay: Inhibition of human delta opioid receptor at 3 uM by radioligand binding assay
[5] = target: T1, Muscarinic acetylcholine receptor M5 (Homo sapiens) (UniProt P08912); assay: Agonist activity at muscarinic M5 receptor (unknown origin) at 10 uM by calcium mobilization assay; assay type: functional
T1 sequence (whole entry): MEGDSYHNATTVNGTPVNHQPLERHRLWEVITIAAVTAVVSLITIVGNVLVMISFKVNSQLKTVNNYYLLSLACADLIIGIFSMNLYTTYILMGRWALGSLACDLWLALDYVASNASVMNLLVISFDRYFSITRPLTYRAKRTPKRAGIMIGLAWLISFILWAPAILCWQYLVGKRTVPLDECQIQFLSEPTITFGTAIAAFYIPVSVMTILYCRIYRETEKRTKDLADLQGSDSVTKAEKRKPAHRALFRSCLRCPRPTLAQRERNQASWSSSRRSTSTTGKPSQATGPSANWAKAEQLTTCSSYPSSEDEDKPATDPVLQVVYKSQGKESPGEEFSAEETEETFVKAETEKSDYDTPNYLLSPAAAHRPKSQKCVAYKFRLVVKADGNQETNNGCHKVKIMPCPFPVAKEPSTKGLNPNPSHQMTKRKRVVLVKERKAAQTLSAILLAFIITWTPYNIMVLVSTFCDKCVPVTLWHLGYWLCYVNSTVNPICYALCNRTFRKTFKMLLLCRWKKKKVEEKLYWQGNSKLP

[6] = target: T2, Muscarinic acetylcholine receptor M1 (Homo sapiens) (UniProt P11229); assay: Intrinsic activity at muscarinic M1 receptor (unknown origin) by calcium mobilization assay; assay type: functional
T2 sequence (whole entry): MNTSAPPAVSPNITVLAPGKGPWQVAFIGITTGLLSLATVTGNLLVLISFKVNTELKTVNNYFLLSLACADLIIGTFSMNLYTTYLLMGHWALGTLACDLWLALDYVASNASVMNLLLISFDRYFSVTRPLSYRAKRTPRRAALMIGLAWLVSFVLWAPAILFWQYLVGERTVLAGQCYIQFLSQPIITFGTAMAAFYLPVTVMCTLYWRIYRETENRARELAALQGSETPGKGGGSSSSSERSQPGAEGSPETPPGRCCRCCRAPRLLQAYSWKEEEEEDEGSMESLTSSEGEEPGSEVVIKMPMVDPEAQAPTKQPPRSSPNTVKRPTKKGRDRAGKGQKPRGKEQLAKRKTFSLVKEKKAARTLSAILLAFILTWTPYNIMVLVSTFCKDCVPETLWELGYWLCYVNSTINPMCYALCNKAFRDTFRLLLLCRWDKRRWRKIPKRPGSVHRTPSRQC

[7] = target: Substance-P receptor (Homo sapiens) (UniProt P25103); assay: Inhibition of human NK1 receptor at 3 uM by radioligand binding assay
[8] = target: Phosphodiesterase 4 (Homo sapiens) (UniProt P27815+Q08499+Q07343+Q08493); assay: Inhibition of human PDE4 at 3 uM by radioligand binding assay; assay type: protein assay
[9] = Cmax in monkey at 0.25 mg/kg, iv and 2.5 mg/kg, po; assay type: ADME, organism-based, Macaca mulatta; conditions: rhesus monkey, in vivo
[10] = target: Histamine H1 receptor (Homo sapiens) (UniProt P35367); assay: Inhibition of human histamine H1 receptor at 3 uM by radioligand binding assay
[11] = target: 5-hydroxytryptamine receptor 1A (Homo sapiens) (UniProt P08908); assay: Inhibition of human 5-HT1A receptor at 3 uM by radioligand binding assay
[12] = Half life in rat at 0.25 mg/kg, iv and 2.5 mg/kg, po; assay type: ADME, organism-based; conditions: in vivo
[13] = target: hERG (KCNH2) (Homo sapiens, UniProt Q12809); assay: Inhibition of human ERG channel at 3 uM by radioligand binding assay
[14] = target: Muscarinic acetylcholine receptor M1 (Homo sapiens, UniProt P11229); assay: Agonist activity at muscarinic M1 receptor (unknown origin) by calcium mobilization assay; assay type: functional

Chain of hERG (KCNH2) (Q12809 whole entry): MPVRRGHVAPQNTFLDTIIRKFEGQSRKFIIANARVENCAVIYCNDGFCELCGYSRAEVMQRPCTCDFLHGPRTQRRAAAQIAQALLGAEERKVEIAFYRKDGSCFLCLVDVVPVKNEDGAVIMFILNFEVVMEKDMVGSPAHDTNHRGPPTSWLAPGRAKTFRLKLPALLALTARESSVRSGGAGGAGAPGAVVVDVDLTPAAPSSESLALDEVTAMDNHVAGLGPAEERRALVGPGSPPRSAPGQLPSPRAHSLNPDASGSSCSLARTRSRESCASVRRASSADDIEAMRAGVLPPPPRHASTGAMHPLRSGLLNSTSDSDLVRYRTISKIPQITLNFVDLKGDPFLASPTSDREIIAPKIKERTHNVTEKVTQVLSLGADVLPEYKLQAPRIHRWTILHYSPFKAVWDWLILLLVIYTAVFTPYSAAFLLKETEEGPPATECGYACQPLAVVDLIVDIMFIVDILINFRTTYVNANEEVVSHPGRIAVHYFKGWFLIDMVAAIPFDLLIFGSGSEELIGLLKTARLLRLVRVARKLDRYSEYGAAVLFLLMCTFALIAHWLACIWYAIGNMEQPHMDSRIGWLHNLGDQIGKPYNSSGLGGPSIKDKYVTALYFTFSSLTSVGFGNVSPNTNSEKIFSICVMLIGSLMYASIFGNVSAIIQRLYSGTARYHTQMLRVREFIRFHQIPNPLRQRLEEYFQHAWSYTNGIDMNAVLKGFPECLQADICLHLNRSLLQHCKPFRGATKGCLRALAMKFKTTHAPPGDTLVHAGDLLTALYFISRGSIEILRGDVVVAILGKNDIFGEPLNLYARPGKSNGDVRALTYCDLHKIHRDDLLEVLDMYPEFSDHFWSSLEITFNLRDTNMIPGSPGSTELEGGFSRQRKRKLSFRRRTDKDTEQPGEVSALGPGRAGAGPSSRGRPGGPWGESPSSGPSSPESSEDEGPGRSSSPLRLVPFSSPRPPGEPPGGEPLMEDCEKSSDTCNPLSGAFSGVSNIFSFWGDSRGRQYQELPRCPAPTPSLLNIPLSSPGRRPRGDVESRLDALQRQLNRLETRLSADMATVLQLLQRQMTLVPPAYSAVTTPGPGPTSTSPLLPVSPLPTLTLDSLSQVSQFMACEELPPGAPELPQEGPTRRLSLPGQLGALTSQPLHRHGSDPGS
Chain of Delta-type opioid receptor (Homo sapiens) (P41143 whole entry): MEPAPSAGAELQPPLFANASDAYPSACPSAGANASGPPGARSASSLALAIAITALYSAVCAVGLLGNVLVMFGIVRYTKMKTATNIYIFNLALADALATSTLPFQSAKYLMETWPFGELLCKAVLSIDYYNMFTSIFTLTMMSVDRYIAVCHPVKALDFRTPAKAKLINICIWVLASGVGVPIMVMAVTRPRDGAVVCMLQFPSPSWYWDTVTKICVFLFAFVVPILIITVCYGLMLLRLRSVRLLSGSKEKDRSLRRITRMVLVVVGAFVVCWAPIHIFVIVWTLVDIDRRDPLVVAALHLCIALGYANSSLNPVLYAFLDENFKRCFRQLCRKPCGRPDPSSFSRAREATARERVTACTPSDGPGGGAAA
Chain of 5-hydroxytryptamine receptor 1A (Homo sapiens) (P08908 whole entry): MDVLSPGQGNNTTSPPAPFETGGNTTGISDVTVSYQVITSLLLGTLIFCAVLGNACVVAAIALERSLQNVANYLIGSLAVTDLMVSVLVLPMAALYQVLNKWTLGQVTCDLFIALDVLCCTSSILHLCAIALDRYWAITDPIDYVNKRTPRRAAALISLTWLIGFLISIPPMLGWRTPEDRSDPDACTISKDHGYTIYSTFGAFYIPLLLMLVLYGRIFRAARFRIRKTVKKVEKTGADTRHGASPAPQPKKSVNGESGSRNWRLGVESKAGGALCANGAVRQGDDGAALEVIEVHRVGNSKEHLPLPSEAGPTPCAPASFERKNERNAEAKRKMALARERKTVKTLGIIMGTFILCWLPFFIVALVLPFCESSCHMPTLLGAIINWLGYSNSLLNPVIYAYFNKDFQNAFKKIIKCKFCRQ
Chain of Substance-P receptor (Homo sapiens) (P25103 whole entry): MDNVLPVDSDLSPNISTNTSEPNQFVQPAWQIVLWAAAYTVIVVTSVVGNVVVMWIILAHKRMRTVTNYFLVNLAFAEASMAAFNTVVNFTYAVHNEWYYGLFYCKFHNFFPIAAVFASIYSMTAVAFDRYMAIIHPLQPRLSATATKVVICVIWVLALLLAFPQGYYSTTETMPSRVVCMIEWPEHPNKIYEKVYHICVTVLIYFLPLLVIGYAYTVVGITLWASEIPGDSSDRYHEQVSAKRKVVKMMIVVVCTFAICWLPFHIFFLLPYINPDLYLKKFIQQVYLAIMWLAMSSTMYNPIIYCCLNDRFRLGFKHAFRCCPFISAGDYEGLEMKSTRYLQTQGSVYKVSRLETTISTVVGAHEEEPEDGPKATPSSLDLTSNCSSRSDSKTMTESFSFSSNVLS
Chain of Histamine H1 receptor (Homo sapiens) (P35367 whole entry): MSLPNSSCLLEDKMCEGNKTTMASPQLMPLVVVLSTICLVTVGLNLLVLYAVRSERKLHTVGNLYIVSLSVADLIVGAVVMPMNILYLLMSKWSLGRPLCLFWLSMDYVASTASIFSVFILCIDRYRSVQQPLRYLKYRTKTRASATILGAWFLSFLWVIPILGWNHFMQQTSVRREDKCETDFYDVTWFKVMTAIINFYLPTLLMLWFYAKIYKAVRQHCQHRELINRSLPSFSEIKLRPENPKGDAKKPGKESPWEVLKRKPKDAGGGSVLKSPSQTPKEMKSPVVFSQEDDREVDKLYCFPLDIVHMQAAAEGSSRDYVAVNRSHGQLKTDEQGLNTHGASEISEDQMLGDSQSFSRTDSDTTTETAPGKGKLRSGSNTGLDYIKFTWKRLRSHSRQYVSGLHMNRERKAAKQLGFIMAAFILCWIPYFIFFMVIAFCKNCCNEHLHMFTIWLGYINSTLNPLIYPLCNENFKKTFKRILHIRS

**Q.** With `CCOC(=O)N1CCC(CN2CCC3(CC2)CN(C(=O)N(C)C)c2ncccc23)CC1.O=C(O)/C=C/C(=O)O` as the molecule, how does the half-life [1] read?
**A.** The half-life was 4.76 h.

**Q.** What about the clearance [2] of the same molecule?
**A.** The clearance was 16.5 mL/min/kg.

**Q.** What about the bioavailability [3] of the same molecule?
**A.** Its bioavailability is 51.1%.

**Q.** And the inhibition [4]?
**A.** The inhibition was -1%.

**Q.** And the Activity [5]?
**A.** The Activity was 11%.

**Q.** What about the Intrinsic activity [6] of the same molecule?
**A.** The Intrinsic activity was 76%.

**Q.** And the inhibition [7]?
**A.** The inhibition was 2%.

**Q.** And the inhibition [8]?
**A.** Its inhibition is -5%.

**Q.** And the Cmax [9]?
**A.** The Cmax was 30.7 ng/mL.

**Q.** What about the inhibition [10] of the same molecule?
**A.** The inhibition was -2%.

**Q.** And the inhibition [11]?
**A.** Its inhibition is -6%.

**Q.** And the half-life [12]?
**A.** The half-life was 0.9 h.

**Q.** What about the inhibition at 3 µM [13] of the same molecule?
**A.** The inhibition at 3 µM was 0%.

**Q.** What about the EC50 [14] of the same molecule?
**A.** The EC50 was 133 nM.
